Experimental data: US6479435B1, “Diaryl ethers and processes for their preparation and herbicidal and desiccant compositions containing them” (ISK Americas Incorporated, priority 1997, dated 2002)

Assays:
Format in all cases: in vivo
[1] = tested on: lambsquarters (Chenopodium album, CHEAL); test: Post-emerge greenhouse herbicide test, phytotoxicity rating; settings: 14 days after application, scale 0-100
In short: (§1)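 Plants at the 2-3 leaf stage, sown 8-21 days earlier, were track-sprayed post-emergence with compound in acetone plus 0.25% v/v non-ionic surfactant at 63-1000 g ai/ha (187 l/ha). Damage was rated at 14 days on a 0-100 scale (0 none, 100 all plants dead), for both crop injury and weed control.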

[2] = tested on: barnyardgrass (Echinochloa crusgalli, ECHCG); test: as above; settings: 14 days after application, scale 0-100
In short: as §1

[3] = tested on: velvetleaf (Abutilon theophrasti, ABUTH); test: as above; settings: 14 days after application, scale 0-100
In short: as §1

[4] = tested on: Johnsongrass (Sorghum halepense, SORHA); test: as above; settings: 14 days after application, scale 0-100
In short: as §1

[5] = tested on: redroot pigweed (Amaranthus retroflexus, AMARE); test: as above; settings: 14 days after application, scale 0-100
In short: as §1

[6] = tested on: green foxtail (Setaria viridis, SETVI); test: as above; settings: 14 days after application, scale 0-100
In short: as §1

[7] = tested on: sicklepod (Cassia obtusifolia, CASOB); test: as above; settings: 14 days after application, scale 0-100
In short: as §1

[8] = tested on: large crabgrass (Digitaria sanguinalis, DIGSA); test: as above; settings: 14 days after application, scale 0-100
In short: as §1

[9] = tested on: ivyleaf morningglory (Ipomoea hederacea, IPOHE); test: as above; settings: 14 days after application, scale 0-100
In short: as §1

[10] = tested on: soybean (Glycine max L., var. Pella 86, SOY); test: Post-emerge greenhouse test, crop damage rating; parameters: key to crop damage rating SOY: 0-100 scale: 0 = no damage, 100 = complete death of all plants; settings: 14 days after application, scale 0-100
In short: as §1

[11] = tested on: lambsquarters (Chenopodium album, CHEAL); test: Pre-emerge greenhouse herbicide test, phytotoxicity rating; settings: 14 days after application, rating scale 0-100
In short: (§2)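 Seeds sown in sandy loam one day before track-sprayer application of acetone solutions at 125–1000 g ai/ha (187 l/ha), then surface-watered to incorporate and bottom-watered. Injury scored visually at 14 days on a 0–100 scale (0 no damage, 100 complete death).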

[12] = tested on: barnyardgrass (Echinochloa crusgalli, ECHCG); test: as above; settings: 14 days after application, rating scale 0-100
In short: as §2

[13] = tested on: velvetleaf (Abutilon theophrasti, ABUTH); test: as above; settings: 14 days after application, rating scale 0-100
In short: as §2

[14] = tested on: Johnsongrass (Sorghum halepense, SORHA); test: as above; settings: 14 days after application, rating scale 0-100
In short: as §2

[15] = tested on: redroot pigweed (Amaranthus retroflexus, AMARE); test: as above; settings: 14 days after application, rating scale 0-100
In short: as §2

[16] = tested on: green foxtail (Setaria viridis, SETVI); test: as above; settings: 14 days after application, rating scale 0-100
In short: as §2

[17] = tested on: sicklepod (Cassia obtusifolia, CASOB); test: as above; settings: 14 days after application, rating scale 0-100
In short: as §2

[18] = tested on: large crabgrass (Digitaria sanguinalis, DIGSA); test: as above; settings: 14 days after application, rating scale 0-100
In short: as §2

[19] = tested on: common ragweed (Ambrosia artemisiifolia L., AMBEL); test: as above; settings: 14 days after application, rating scale 0-100
In short: as §2

[20] = tested on: ivyleaf morningglory (Ipomoea hederacea, IPOHE); test: as above; settings: 14 days after application, rating scale 0-100
In short: as §2

[21] = tested on: upland rice (Oryza sp., var.Tebonnet, RICE); test: Pre-emerge greenhouse test, crop damage rating; settings: 14 days after application, rating scale 0-100
In short: as §2

[22] = tested on: field corn (Zea mays L., var. Dekalb 535, CORN); test: Pre-emerge greenhouse test, crop damage rating; settings: 14 days after application, rating scale 0-100
In short: as §2

[23] = tested on: soybean (Glycine max L., var. Pella 86, SOY); test: Pre-emerge greenhouse test, crop damage rating; parameters: key to SOY crop damage rating: 0 = no damage, 100 = complete death of all plants; settings: 14 days after application, rating scale 0-100
In short: as §2

[24] = tested on: common ragweed (Ambrosia artemisiifolia L., AMBEL); test: Post-emerge greenhouse herbicide test, phytotoxicity rating; settings: 14 days after application, scale 0-100
In short: as §1

[25] = tested on: upland rice (Oryza sp., var.Tebonnet, RICE); test: Post-emerge greenhouse test, crop damage rating; settings: 14 days after application, scale 0-100
In short: as §1

[26] = tested on: field corn (Zea mays L., var. Dekalb 535, CORN); test: Post-emerge greenhouse test, crop damage rating; settings: 14 days after application, scale 0-100
In short: as §1

CC(C)S(=O)(=O)c1cccnc1Oc1cc(-n2c(=O)n3n(c2=S)CCCC3)c(F)cc1Cl [Compound 8-37]
phytotoxicity rating CHEAL ([1]; rate 63 g ai/ha): 90
phytotoxicity rating CHEAL ([1]; rate 500 g ai/ha): 90
phytotoxicity rating ECHCG ([2]; rate 63 g ai/ha): 0
phytotoxicity rating ECHCG ([2]; rate 500 g ai/ha): 10
phytotoxicity rating ABUTH ([3]; rate 63 g ai/ha): 100
phytotoxicity rating ABUTH ([3]; rate 500 g ai/ha): 100
phytotoxicity rating SORHA ([4]; rate 63 g ai/ha): 0
phytotoxicity rating SORHA ([4]; rate 500 g ai/ha): 50
phytotoxicity rating AMARE ([5]; rate 63 g ai/ha): 90
phytotoxicity rating AMARE ([5]; rate 500 g ai/ha): 95
phytotoxicity rating SETVI ([6]; rate 63 g ai/ha): 0
phytotoxicity rating SETVI ([6]; rate 500 g ai/ha): 30
phytotoxicity rating CASOB ([7]; rate 63 g ai/ha): 100
phytotoxicity rating CASOB ([7]; rate 500 g ai/ha): 95
phytotoxicity rating DIGSA ([8]; rate 63 g ai/ha): 0
phytotoxicity rating DIGSA ([8]; rate 500 g ai/ha): 0
phytotoxicity rating IPOHE ([9]; rate 63 g ai/ha): 95
phytotoxicity rating IPOHE ([9]; rate 500 g ai/ha): 80
crop damage rating SOY ([10]; rate 63 g ai/ha): 90
crop damage rating SOY ([10]; rate 500 g ai/ha): 100
CHEAL phytotoxicity rating ([11]; Rate 125 g al/ha): 100
CHEAL phytotoxicity rating ([11]; Rate 500 g al/ha): 100
ECHCG phytotoxicity rating ([12]; Rate 125 g al/ha): 30
ECHCG phytotoxicity rating ([12]; Rate 500 g al/ha): 100
ABUTH phytotoxicity rating ([13]; Rate 125 g al/ha): 100
ABUTH phytotoxicity rating ([13]; Rate 500 g al/ha): 100
SORHA phytotoxicity rating ([14]; Rate 125 g al/ha): 20
SORHA phytotoxicity rating ([14]; Rate 500 g al/ha): 80
AMARE phytotoxicity rating ([15]; Rate 125 g al/ha): 100
AMARE phytotoxicity rating ([15]; Rate 500 g al/ha): 100
SETVI phytotoxicity rating ([16]; Rate 125 g al/ha): 100
SETVI phytotoxicity rating ([16]; Rate 500 g al/ha): 100
CASOB phytotoxicity rating ([17]; Rate 125 g al/ha): 0
CASOB phytotoxicity rating ([17]; Rate 500 g al/ha): 80
DIGSA phytotoxicity rating ([18]; Rate 125 g al/ha): 80
DIGSA phytotoxicity rating ([18]; Rate 500 g al/ha): 100
AMBEL phytotoxicity rating ([19]; Rate 125 g al/ha): 100
AMBEL phytotoxicity rating ([19]; Rate 500 g al/ha): 100
IPOHE phytotoxicity rating ([20]; Rate 125 g al/ha): 30
IPOHE phytotoxicity rating ([20]; Rate 500 g al/ha): 85
RICE crop damage rating ([21]; Rate 125 g al/ha): 10
RICE crop damage rating ([21]; Rate 500 g al/ha): 80
CORN crop damage rating ([22]; Rate 125 g al/ha): 0
CORN crop damage rating ([22]; Rate 500 g al/ha): 25
SOY crop damage rating ([23]; Rate 125 g al/ha): 50
SOY crop damage rating ([23]; Rate 500 g al/ha): 80
phytotoxicity rating AMBEL ([24]; rate 63 g ai/ha): 30
phytotoxicity rating AMBEL ([24]; rate 500 g ai/ha): 60
crop damage rating RICE ([25]; rate 63 g ai/ha): 0
crop damage rating RICE ([25]; rate 500 g ai/ha): 35
crop damage rating CORN ([26]; rate 63 g ai/ha): 0
crop damage rating CORN ([26]; rate 500 g ai/ha): 40

CCOC(=O)C(C)Oc1cc([N+](=O)[O-])c(Oc2cc(-n3c(=O)n4n(c3=S)CCCC4)c(F)cc2Cl)cc1Cl (centres unmarked) [Compound 8-38]
phytotoxicity rating CHEAL ([1]; rate 63 g ai/ha): 40
phytotoxicity rating CHEAL ([1]; rate 250 g ai/ha): 50
phytotoxicity rating ECHCG ([2]; rate 63 g ai/ha): 0
phytotoxicity rating ECHCG ([2]; rate 250 g ai/ha): 0
phytotoxicity rating ABUTH ([3]; rate 63 g ai/ha): 100
phytotoxicity rating ABUTH ([3]; rate 250 g ai/ha): 00
phytotoxicity rating SORHA ([4]; rate 63 g ai/ha): 0
phytotoxicity rating SORHA ([4]; rate 250 g ai/ha): 0
phytotoxicity rating AMARE ([5]; rate 63 g ai/ha): 60
phytotoxicity rating AMARE ([5]; rate 250 g ai/ha): 70
phytotoxicity rating SETVI ([6]; rate 63 g ai/ha): 0
phytotoxicity rating SETVI ([6]; rate 250 g ai/ha): 20
phytotoxicity rating CASOB ([7]; rate 63 g ai/ha): 30
phytotoxicity rating CASOB ([7]; rate 250 g ai/ha): 30
phytotoxicity rating DIGSA ([8]; rate 63 g ai/ha): 0
phytotoxicity rating DIGSA ([8]; rate 250 g ai/ha): 0
phytotoxicity rating IPOHE ([9]; rate 63 g ai/ha): 40
phytotoxicity rating IPOHE ([9]; rate 250 g ai/ha): 100
crop damage rating SOY ([10]; rate 63 g ai/ha): 10
crop damage rating SOY ([10]; rate 250 g ai/ha): 20
CHEAL phytotoxicity rating ([11]; Rate 125 g al/ha): 80
CHEAL phytotoxicity rating ([11]; Rate 250 g al/ha): 90
ECHCG phytotoxicity rating ([12]; Rate 125 g al/ha): 0
ECHCG phytotoxicity rating ([12]; Rate 250 g al/ha): 0
ABUTH phytotoxicity rating ([13]; Rate 125 g al/ha): 100
ABUTH phytotoxicity rating ([13]; Rate 250 g al/ha): 100
SORHA phytotoxicity rating ([14]; Rate 125 g al/ha): 0
SORHA phytotoxicity rating ([14]; Rate 250 g al/ha): 0
AMARE phytotoxicity rating ([15]; Rate 125 g al/ha): 30
AMARE phytotoxicity rating ([15]; Rate 250 g al/ha): 80
SETVI phytotoxicity rating ([16]; Rate 125 g al/ha): 0
SETVI phytotoxicity rating ([16]; Rate 250 g al/ha): 70
CASOB phytotoxicity rating ([17]; Rate 125 g al/ha): 0
CASOB phytotoxicity rating ([17]; Rate 250 g al/ha): 0
DIGSA phytotoxicity rating ([18]; Rate 125 g al/ha): 0
DIGSA phytotoxicity rating ([18]; Rate 250 g al/ha): 0
AMBEL phytotoxicity rating ([19]; Rate 125 g al/ha): 0
AMBEL phytotoxicity rating ([19]; Rate 250 g al/ha): 0
IPOHE phytotoxicity rating ([20]; Rate 125 g al/ha): 0
IPOHE phytotoxicity rating ([20]; Rate 250 g al/ha): 30
RICE crop damage rating ([21]; Rate 125 g al/ha): 0
RICE crop damage rating ([21]; Rate 250 g al/ha): 0
CORN crop damage rating ([22]; Rate 125 g al/ha): 0
CORN crop damage rating ([22]; Rate 250 g al/ha): 0
SOY crop damage rating ([23]; Rate 125 g al/ha): 0
SOY crop damage rating ([23]; Rate 250 g al/ha): 0
phytotoxicity rating AMBEL ([24]; rate 63 g ai/ha): 20
phytotoxicity rating AMBEL ([24]; rate 250 g ai/ha): 50
crop damage rating RICE ([25]; rate 63 g ai/ha): 20
crop damage rating RICE ([25]; rate 250 g ai/ha): 50
crop damage rating CORN ([26]; rate 63 g ai/ha): 0
crop damage rating CORN ([26]; rate 250 g ai/ha): 20
